Results published in US11643385B2, “Polymorphic forms of RAD1901-2HCl” (RADIUS PHARMACEUTICALS, INC., priority 2018, dated 2023).
Entries after “also recorded” stand apart in the source; their conditions may differ. Like-named read-outs stand apart in the source and are kept apart here. Marks after values point to notes of the source that are not given here.

How the values were obtained:
[1] = Solubility assessment and polymorph screen on Sample 1 (Form 1) of RAD1901-2HCl in 24 solvent systems; format: physicochemical; details: for Solubility observation at 10 vol.: 25 mg Sample 1, 10 vol. solvent (solvent per sample ID), stirred 25° C., shaken 50° C.; for Solubility observation at 20 vol.: 20 vol. solvent (solvent per sample ID); for Observation after Cooled to 5° C.: clear solutions cooled 50° C. to 5° C. at 0.1° C./min; for Observation after Evaporation: slow evaporation at ambient conditions; for XRPD of recovered solid (form): solid recovered after maturation, cooling or evaporation; for Solubility observation at 40 vol.: 40 vol. solvent (solvent per sample ID); for Solubility observation at 60 vol.: 60 vol. solvent (solvent per sample ID)
Experimental: Solubility assessment was carried out on the Sample 1 of RAD1901-2HCl (majorly Form 1 shown by XRPD) in 24 solvent systems in HPLC vials (sample IDs: A1 to A24). RAD1901-2HCl (25 mg) was treated with increasing volumes of solvent until the material fully dissolved or until a maximum of 60 vol had been used (Table 13).
After each addition of solvent, the system was stirred for 5 to 10 minutes at 25° C., then shaken at 50° C. for 5 to 10 minutes, and observations made. Samples were allowed to stand at room temperature for 5 min before the addition of a new aliquot of solvent. After the assessment was completed, the suspensions obtained were matured (maturation) and the clear solutions were cooled (cooling) and slowly evaporated (evaporation) as described below. All solids recovered from maturation, cooling and evaporation experiments were analyzed by high resolution XRPD.
The suspensions obtained during the solubility assessment were matured by shaken in a maturation chamber between 50° C. and RT (8 hr per cycle) for up to 5 days. Then the mixture was allowed to stand at room temperature for 10 minutes. The resulting solids were filtered and air dried and analyzed by XRPD. The clear solutions obtained during maturation were evaporated in ambient conditions and the resulting residues were analyzed by XRPD.
The clear solutions obtained during the course of the solubility assessment were cooled on a Polar Bear device from 50° C. to 5° C. at 0.1° C./min. Solids obtained upon cooling were recovered from the vials, air dried and analyzed by XRPD. If no solid was obtained, the solutions were evaporated slowly through a needle inserted into the septum cap of the vial until a solid appeared at ambient conditions and the resulting solids were filtered, air dried and analyzed by XRPD.

[2] = Solubility assessment and polymorph screen on amorphous RAD1901-2HCl; format: physicochemical; details: for XRPD post 50° C./RT (form): after maturation at 50° C./RT; for Solubility observation at 10 vol.: amorphous RAD1901-2HCl, 10 vol. solvent (solvent per sample ID); for XRPD post 25° C. (form): after maturation at 25° C.
Experimental: In a scale-up preparation of amorphous RAD1901-2HCl, RAD1901-2HCl (600 mg) was dissolved in water (20 vol., 12 mL) and filtered to remove any remaining solid particles. The solution was then aliquoted into 24 HPLC vials, frozen in a dry ice/acetone bath and the solvent removed by lyophilisation. Solids produced by lyophilization were used directly in solubility assessment and polymorph screens in Example 4.
Amorphous RAD1901-2HCl prepared as described in Example 3B was used directly in solubility assessment and polymorph screens (Table 15). XRPD patterns were further obtained for amorphous RAD1901-2HCl prepared using other solvents.
In the polymorph screen of the amorphous RAD1901-2HCl prepared as described in Example 3B, an aliquot of each sample was examined for its morphology under the microscope, both after maturing at 25° C., and after maturing at 50° C./RT. […] In some instances, the sample appeared to be a mixture of various polymorphic forms, e.g. Form 2 and Form 3 (FIGS. 18B-18C), similar to the mixture of Forms 2 and 3 in Sample 2 having an equilibrium between the two solid forms, depending on the prevailing RH.

Structure (SMILES) | Solubility observation at 10 vol. [1] | Solubility observation at 20 vol. [1] | XRPD of recovered solid (form) [1] | XRPD post 50° C./RT (form) [2] | Solubility observation at 10 vol. [2] | other results
CCNCCc1ccc(CN(CC)c2cc(OC)ccc2[C@@H]2CCc3cc(O)ccc3C2)cc1.Cl.Cl [Form A12] | +/− (+/− = nearly dissolved) | S (S = solution) | Form 3 | – | – | Observation after Cooled to 5° C. [1]: S; Observation after Evaporation [1]: Solid
CCNCCc1ccc(CN(CC)c2cc(OC)ccc2[C@@H]2CCc3cc(O)ccc3C2)cc1.Cl.Cl [Form A13] | X (X = suspension) | X (X = suspension) | Form 1 | – | – | Solubility observation at 40 vol. [1]: X (X = suspension); Solubility observation at 60 vol. [1]: X (X = suspension)
CCNCCc1ccc(CN(CC)c2cc(OC)ccc2[C@@H]2CCc3cc(O)ccc3C2)cc1.Cl.Cl [Form A14] | X (X = suspension) | X (X = suspension) | Form 1 | – | – | Solubility observation at 40 vol. [1]: X (X = suspension); Solubility observation at 60 vol. [1]: X (X = suspension)
CCNCCc1ccc(CN(CC)c2cc(OC)ccc2[C@@H]2CCc3cc(O)ccc3C2)cc1.Cl.Cl [Form A15] | X (X = suspension) | X (X = suspension) | Form 1 | – | – | Solubility observation at 40 vol. [1]: X (X = suspension); Solubility observation at 60 vol. [1]: X (X = suspension)
CCNCCc1ccc(CN(CC)c2cc(OC)ccc2[C@@H]2CCc3cc(O)ccc3C2)cc1.Cl.Cl [Form A17] | X (X = suspension) | X (X = suspension) | Form 1 | – | – | Solubility observation at 40 vol. [1]: X (X = suspension); Solubility observation at 60 vol. [1]: X (X = suspension)
CCNCCc1ccc(CN(CC)c2cc(OC)ccc2[C@@H]2CCc3cc(O)ccc3C2)cc1.Cl.Cl [Form A19] | X (X = suspension) | X (X = suspension) | Form 1 | – | – | Solubility observation at 40 vol. [1]: X (X = suspension); Solubility observation at 60 vol. [1]: X (X = suspension)
CCNCCc1ccc(CN(CC)c2cc(OC)ccc2[C@@H]2CCc3cc(O)ccc3C2)cc1.Cl.Cl [Form A20] | +/− (+/− = nearly dissolved) | S (S = solution) | Pattern 3; also recorded: Form 3 | – | – | Observation after Cooled to 5° C. [1]: Platelet
CCNCCc1ccc(CN(CC)c2cc(OC)ccc2[C@@H]2CCc3cc(O)ccc3C2)cc1.Cl.Cl [Form A21] | – | – | – | – | – | Observation After 50/RT maturation ([1]; 50° C./RT cycles (8 hr per cycle) up to 5 days): S
CCNCCc1ccc(CN(CC)c2cc(OC)ccc2[C@@H]2CCc3cc(O)ccc3C2)cc1.Cl.Cl [Form A22] | +/− (+/− = nearly dissolved) | S (S = solution) | Form 3* | – | – | Observation after Cooled to 5° C. [1]: Some
CCNCCc1ccc(CN(CC)c2cc(OC)ccc2[C@@H]2CCc3cc(O)ccc3C2)cc1.Cl.Cl [Form A23] | X (X = suspension) | X (X = suspension) | Form 3 | – | – | Solubility observation at 40 vol. [1]: +/− (+/− = nearly dissolved); Solubility observation at 60 vol. [1]: S (S = solution); Observation after Cooled to 5° C. [1]: S; Observation after Evaporation [1]: Solids,
CCNCCc1ccc(CN(CC)c2cc(OC)ccc2[C@@H]2CCc3cc(O)ccc3C2)cc1.Cl.Cl [Form A24] | X (X = suspension) | X (X = suspension) | Form 3 | – | – | Solubility observation at 40 vol. [1]: +/− (+/− = nearly dissolved); Solubility observation at 60 vol. [1]: S (S = solution); Observation after Cooled to 5° C. [1]: S; Observation after Evaporation [1]: Solids
CCNCCc1ccc(CN(CC)c2cc(OC)ccc2[C@@H]2CCc3cc(O)ccc3C2)cc1.Cl.Cl [Form B1.] | – | – | – | Amorphous | X (X = suspension) | –
CCNCCc1ccc(CN(CC)c2cc(OC)ccc2[C@@H]2CCc3cc(O)ccc3C2)cc1.Cl.Cl [Form B2.] | – | – | – | Form 2/3 | – | –
CCNCCc1ccc(CN(CC)c2cc(OC)ccc2[C@@H]2CCc3cc(O)ccc3C2)cc1.Cl.Cl [Form B3.] | – | – | – | Form 2/3 | X (X = suspension) | –
CCNCCc1ccc(CN(CC)c2cc(OC)ccc2[C@@H]2CCc3cc(O)ccc3C2)cc1.Cl.Cl [Form B4.] | – | – | – | Form 2/3 | X (X = suspension) | –
CCNCCc1ccc(CN(CC)c2cc(OC)ccc2[C@@H]2CCc3cc(O)ccc3C2)cc1.Cl.Cl [Form B5.] | – | – | – | Form 3 | X (X = suspension) | –
CCNCCc1ccc(CN(CC)c2cc(OC)ccc2[C@@H]2CCc3cc(O)ccc3C2)cc1.Cl.Cl [Form B6.] | – | – | – | Form 1^+ | X (X = suspension) | –
CCNCCc1ccc(CN(CC)c2cc(OC)ccc2[C@@H]2CCc3cc(O)ccc3C2)cc1.Cl.Cl [Form B7.] | – | – | – | Form 1^+ | X (X = suspension) | –
CCNCCc1ccc(CN(CC)c2cc(OC)ccc2[C@@H]2CCc3cc(O)ccc3C2)cc1.Cl.Cl [Form B8.] | – | – | – | Form 1 | X (X = suspension) | Observation After maturation at 50° C. ([2]; maturation at 50° C./RT): Crystalline
CCNCCc1ccc(CN(CC)c2cc(OC)ccc2[C@@H]2CCc3cc(O)ccc3C2)cc1.Cl.Cl [Form B10.] | – | – | – | Form 1 | X (X = suspension) | Observation After maturation at 50° C. ([2]; maturation at 50° C./RT): Fine
CCNCCc1ccc(CN(CC)c2cc(OC)ccc2[C@@H]2CCc3cc(O)ccc3C2)cc1.Cl.Cl [Form B11.] | – | – | – | – | S (S = solution) | Observation After maturation at 25° C. ([2]; maturation at 25° C.): S; Observation After maturation at 50° C. ([2]; maturation at 50° C./RT): S
CCNCCc1ccc(CN(CC)c2cc(OC)ccc2[C@@H]2CCc3cc(O)ccc3C2)cc1.Cl.Cl [Form B12.] | – | – | – | Form 3 | S (S = solution) | XRPD post 25° C. (form) [2]: Form 3; Observation After maturation at 50° C. ([2]; maturation at 50° C./RT): Lath
CCNCCc1ccc(CN(CC)c2cc(OC)ccc2[C@@H]2CCc3cc(O)ccc3C2)cc1.Cl.Cl [Form B13.] | – | – | – | Poor | X (X = suspension) | XRPD post 25° C. (form) [2]: Amorphous; Observation After maturation at 50° C. ([2]; maturation at 50° C./RT): Some
CCNCCc1ccc(CN(CC)c2cc(OC)ccc2[C@@H]2CCc3cc(O)ccc3C2)cc1.Cl.Cl [Form B14.] | – | – | – | Poor | X (X = suspension) | –
CCNCCc1ccc(CN(CC)c2cc(OC)ccc2[C@@H]2CCc3cc(O)ccc3C2)cc1.Cl.Cl [Form B15.] | – | – | – | Form 3 | – | Observation After maturation at 50° C. [2]: Fine
